Assay results from PubChem BioAssay AID1259407 (Chemical Carcinogenesis Research Information System (CCRIS), 2018).
Calls of active or inactive are those of the source. The rule behind the calls is not given here.

Tested on: CCRIS mutagenicity, Ames/micronucleus/aberration tests
Experiment: CCRIS mutagenicity studies
[1] = Test System: AMES SALMONELLA TYPHIMURIUM, Strain/Indicator: TA98, Metabolic Activation: NONE, Method: PREINCUBATION
[2] = Test System: AMES SALMONELLA TYPHIMURIUM, Strain/Indicator: TA100, Metabolic Activation: NONE, Method: PREINCUBATION
[3] = Test System: AMES SALMONELLA TYPHIMURIUM, Strain/Indicator: TA97, Metabolic Activation: NONE, Method: STANDARD PLATE
[4] = Test System: AMES SALMONELLA TYPHIMURIUM, Strain/Indicator: TA100, Metabolic Activation: NONE, Method: STANDARD PLATE
[5] = Test System: AMES SALMONELLA TYPHIMURIUM, Strain/Indicator: TA1537, Metabolic Activation: NONE, Method: STANDARD PLATE
[6] = Test System: AMES SALMONELLA TYPHIMURIUM, Strain/Indicator: TA1538, Metabolic Activation: NONE, Method: STANDARD PLATE
[7] = Test System: AMES SALMONELLA TYPHIMURIUM, Strain/Indicator: TA98, Metabolic Activation: NONE, Method: STANDARD PLATE
[8] = Test System: AMES SALMONELLA TYPHIMURIUM, Strain/Indicator: TA98, Metabolic Activation: RAT, LIVER, S-9, AROCLOR 1254, Method: STANDARD PLATE
[9] = Test System: AMES SALMONELLA TYPHIMURIUM, Strain/Indicator: TA100, Metabolic Activation: RAT, LIVER, S-9, AROCLOR 1254, Method: STANDARD PLATE
[10] = Test System: AMES SALMONELLA TYPHIMURIUM, Strain/Indicator: TA1537, Metabolic Activation: RAT, LIVER, S-9, AROCLOR 1254, Method: STANDARD PLATE
[11] = Test System: AMES SALMONELLA TYPHIMURIUM, Strain/Indicator: TA1538, Metabolic Activation: RAT, LIVER, S-9, AROCLOR 1254, Method: STANDARD PLATE

In the case of `C=CCc1ccc(OC)c(OC)c1`, the mutagenic call (Test System: AMES SALMONELLA TYPHIMURIUM, Strain/Indicator: TA98, Metabolic Activation: HAMSTER, LIVER, S-9, AROCLOR 1254, Method: PREINCUBATION) is reported as “inactive; negative”, the mutagenic call [1] is reported as “inactive; negative” and the mutagenic call (Test System: AMES SALMONELLA TYPHIMURIUM, Strain/Indicator: TA98, Metabolic Activation: RAT, LIVER, S-9, AROCLOR 1254, Method: PREINCUBATION) is reported as “inactive; negative”. For the same compound, the mutagenic call (Test System: AMES SALMONELLA TYPHIMURIUM, Strain/Indicator: TA100, Metabolic Activation: HAMSTER, LIVER, S-9, AROCLOR 1254, Method: PREINCUBATION) was “inactive; negative”, the mutagenic call [2] was “inactive; negative” and the mutagenic call (Test System: AMES SALMONELLA TYPHIMURIUM, Strain/Indicator: TA100, Metabolic Activation: RAT, LIVER, S-9, AROCLOR 1254, Method: PREINCUBATION) was “inactive; negative”. For the same compound, the mutagenic call (Test System: AMES SALMONELLA TYPHIMURIUM, Strain/Indicator: TA1535, Metabolic Activation: HAMSTER, LIVER, S-9, AROCLOR 1254, Method: PREINCUBATION) was “inactive; negative”, the mutagenic call (Test System: AMES SALMONELLA TYPHIMURIUM, Strain/Indicator: TA1535, Metabolic Activation: NONE, Method: PREINCUBATION) was “inactive; negative” and the mutagenic call (Test System: AMES SALMONELLA TYPHIMURIUM, Strain/Indicator: TA1535, Metabolic Activation: RAT, LIVER, S-9, AROCLOR 1254, Method: PREINCUBATION) was “inactive; negative”. The mutagenic call (Test System: AMES SALMONELLA TYPHIMURIUM, Strain/Indicator: TA1537, Metabolic Activation: HAMSTER, LIVER, S-9, AROCLOR 1254, Method: PREINCUBATION) was “inactive; negative”, the mutagenic call (Test System: AMES SALMONELLA TYPHIMURIUM, Strain/Indicator: TA1537, Metabolic Activation: NONE, Method: PREINCUBATION) was “inactive; negative” and the mutagenic call (Test System: AMES SALMONELLA TYPHIMURIUM, Strain/Indicator: TA1537, Metabolic Activation: RAT, LIVER, S-9, AROCLOR 1254, Method: PREINCUBATION) was “inactive; negative”.
`FC(F)(Cl)Br` was tested, and the mutagenic call (Test System: AMES SALMONELLA TYPHIMURIUM, Strain/Indicator: TA98, Metabolic Activation: NONE, Method: DESICCATOR) was “inactive; negative”, the mutagenic call (Test System: AMES SALMONELLA TYPHIMURIUM, Strain/Indicator: TA100, Metabolic Activation: NONE, Method: DESICCATOR) was “inactive; negative” and the mutagenic call (Test System: AMES SALMONELLA TYPHIMURIUM, Strain/Indicator: TA100, Metabolic Activation: RAT, LIVER, S-9, AROCLOR 1254, Method: DESICCATOR) was “inactive; negative”. For the same compound, the mutagenic call (Test System: AMES SALMONELLA TYPHIMURIUM, Strain/Indicator: TA1535, Metabolic Activation: NONE, Method: DESICCATOR) was “active; positive”, the mutagenic call (Test System: AMES SALMONELLA TYPHIMURIUM, Strain/Indicator: TA1535, Metabolic Activation: RAT, LIVER, S-9, AROCLOR 1254, Method: DESICCATOR) was “active; positive” and the mutagenic call (Test System: AMES SALMONELLA TYPHIMURIUM, Strain/Indicator: TA1538, Metabolic Activation: RAT, LIVER, S-9, AROCLOR 1254, Method: DESICCATOR) was “inactive; negative”. For the same compound, the mutagenic call (Test System: MOUSE LYMPHOMA, Strain/Indicator: L5178Y (TK+/TK-), Metabolic Activation: NONE, Method: DESICCATOR) was “inactive; negative” and the mutagenic call (Test System: MOUSE LYMPHOMA, Strain/Indicator: L5178Y (TK+/TK-), Metabolic Activation: S-9, Method: DESICCATOR) was “inactive; negative”.
For `Nc1ccc2c(c1)C(=O)/C(=N/Nc1ccc(-c3ccc(N/N=C4\C=CC(=O)C(C(=O)O)=C4)cc3)cc1)C(S(=O)(=O)O)=C2`, the mutagenic call (Test System: AMES SALMONELLA TYPHIMURIUM, Strain/Indicator: TA98, Metabolic Activation: HAMSTER, LIVER, S-9, Method: PREINCUBATION (PRIVAL METHOD)) was “active; positive”.
For `CCCCN(CC(O)c1ccc([O-])c([N+]#N)c1)N=O` (stereo unspecified), the mutagenic call [1] was “active; positive”, the mutagenic call (Test System: AMES SALMONELLA TYPHIMURIUM, Strain/Indicator: TA98, Method: PREINCUBATION) was “active; positive” and the mutagenic call [2] was “active; positive”. For the same compound, the mutagenic call (Test System: AMES SALMONELLA TYPHIMURIUM, Strain/Indicator: TA100, Method: PREINCUBATION) was “active; positive”.
In the case of `CN(C)CCn1cc[n+](C)c1/C=N/O`, the mutagenic call [3] is reported as “inactive; negative”, the mutagenic call (Test System: AMES SALMONELLA TYPHIMURIUM, Strain/Indicator: TA97, Metabolic Activation: S-9, Method: STANDARD PLATE) is reported as “inactive; negative” and the mutagenic call [4] is reported as “inactive; negative”. For the same compound, the mutagenic call (Test System: AMES SALMONELLA TYPHIMURIUM, Strain/Indicator: TA100, Metabolic Activation: S-9, Method: STANDARD PLATE) was “inactive; negative”, the mutagenic call (Test System: AMES SALMONELLA TYPHIMURIUM, Strain/Indicator: TA104, Metabolic Activation: NONE, Method: STANDARD PLATE) was “inactive; negative” and the mutagenic call (Test System: AMES SALMONELLA TYPHIMURIUM, Strain/Indicator: TA104, Metabolic Activation: S-9, Method: STANDARD PLATE) was “inactive; negative”. The mutagenic call [5] was “inactive; negative”, the mutagenic call (Test System: AMES SALMONELLA TYPHIMURIUM, Strain/Indicator: TA1537, Metabolic Activation: S-9, Method: STANDARD PLATE) was “inactive; negative” and the mutagenic call [6] was “inactive; negative”. The mutagenic call (Test System: AMES SALMONELLA TYPHIMURIUM, Strain/Indicator: TA1538, Metabolic Activation: S-9, Method: STANDARD PLATE) was “inactive; negative”.
In the case of `N#Cc1cc([N+](=O)[O-])ccc1N=Nc1ccc(N(CCO)CCO)cc1`, the mutagenic call [7] is reported as “active; positive”, the mutagenic call [8] is reported as “active; positive” and the mutagenic call [4] is reported as “active; positive”. The mutagenic call [9] was “active; positive”, the mutagenic call (Test System: AMES SALMONELLA TYPHIMURIUM, Strain/Indicator: TA1535, Metabolic Activation: NONE, Method: STANDARD PLATE) was “inactive; negative” and the mutagenic call (Test System: AMES SALMONELLA TYPHIMURIUM, Strain/Indicator: TA1535, Metabolic Activation: RAT, LIVER, S-9, AROCLOR 1254, Method: STANDARD PLATE) was “inactive; negative”. For the same compound, the mutagenic call [5] was “active; positive”, the mutagenic call [10] was “active; positive” and the mutagenic call [6] was “active; positive”. The mutagenic call [11] was “active; positive”, the mutagenic call (Test System: CHINESE HAMSTER V-79, Strain/Indicator: V-79 (HGPRT)/6-THIOGUANINE, Metabolic Activation: RAT, LIVER, S-9, AROCLOR 1254) was “inactive; negative” and the mutagenic call (Test System: CHINESE HAMSTER V-79, Strain/Indicator: V-79/6-THIOGUANINE, Metabolic Activation: NONE) was “inactive; negative”. For the same compound, the mutagenic call (Test System: UDS RAT HEPATOCYTES, Strain/Indicator: THY INCORP, Metabolic Activation: NONE, Method: AUTORADIOGRAPHY) was “inactive; negative”.
In the case of `c1cc2ccc3ccc4ccc5cccc6c(c1)c2c3c4c56`, the mutagenic call [3] is reported as “inactive; negative”, the mutagenic call (Test System: AMES SALMONELLA TYPHIMURIUM, Strain/Indicator: TA97, Metabolic Activation: RAT, LIVER, S-9, PCB, Method: STANDARD PLATE) is reported as “active; positive” and the mutagenic call [7] is reported as “inactive; negative”. The mutagenic call (Test System: AMES SALMONELLA TYPHIMURIUM, Strain/Indicator: TA98, Metabolic Activation: RAT, LIVER, S-9, AROCLOR 1254, Method: FLUCTUATION) was “active; positive”, the mutagenic call [8] was “active; positive” and the mutagenic call (Test System: AMES SALMONELLA TYPHIMURIUM, Strain/Indicator: TA98, Metabolic Activation: RAT, LIVER, S-9, PCB, Method: STANDARD PLATE) was “active; positive”. For the same compound, the mutagenic call [4] was “inactive; negative”, the mutagenic call [9] was “active; positive” and the mutagenic call (Test System: AMES SALMONELLA TYPHIMURIUM, Strain/Indicator: TA100, Metabolic Activation: RAT, LIVER, S-9, PCB, Method: STANDARD PLATE) was “inactive; negative”. The mutagenic call [10] was “active; positive”, the mutagenic call (Test System: AMES SALMONELLA TYPHIMURIUM, Strain/Indicator: TA1538, Metabolic Activation: RAT, LIVER, S-9, AROCLOR 1254, Method: FLUCTUATION) was “active; positive” and the mutagenic call [11] was “active; positive”. For the same compound, the mutagenic call (Test System: AMES SALMONELLA TYPHIMURIUM, Strain/Indicator: TA1538, Metabolic Activation: RAT, LIVER, S-9, PHENOBARBITAL, Method: STANDARD PLATE) was “active; positive”.
